The results in this text go back to paper PMC6271425, “Synthesis and Sar Study of Diarylpentanoid Analogues as New Anti-Inflammatory Agents” (Molecules, 2014).

The test system of data set [1] is NO production in IFN-γ/LPS-stimulated RAW 264.7 macrophages. Description: NO suppression (Griess nitrite determination) in IFN-γ/LPS-stimulated RAW 264.7 macrophages. As to conditions: for NO Inhibition at 50 µM (%) ± S.E.M: 50 µM test concentration; for inhibition at 50 µM: RAW264.7, 50 µM test concentration, read-out: NO Inhibition at 50 µM (%) ± S.E.M. It is filed as cell-based, murine. How it is done:
The synthesized compounds were screened for NO suppression activity in IFN-γ/LPS-stimulated RAW 264.7 macrophages at a 50 µM test concentration. […] The IC50 values of the fifty-seven bioactive compounds were determined and compared to that of the positive control, curcumin. An MTT assay was also carried out to confirm that NO inhibition was not due to cytotoxicity. […] The complete bioassay results of all the compounds are provided as Table S2 in Supplementary Data. RAW 264.7 murine macrophages cells obtained from American Type Culture Collection (ATCC, Rockville, MD, USA) were grown in Dulbecco’s Modified Eagle’s Medium (DMEM) containing 10% fetal bovine serum (FBS) and 1% penicillin/streptomycin in a 95% air and 5% CO2 atmosphere at 37 °C. RAW 264.7 cells at 90%–95% confluency were detached and seeded (50,000 cells/well) into a 96-well culture plate with 50 μL of DMEM and incubated for 24 h. The cells were then stimulated in […] of LPS (Escherichia coli, serotype 0111:B4) and 1 ng/ml of interferon-gamma (IFN-γ) in the presence or absence of test compounds for 17 h. Nitrite concentration was then determined by Griess assay by reacting 50 μL of cell culture supernatant with 50 μL of Griess reagent (1% sulfanilamide and 0.1% N-(1-naphthyl)ethylenediamine dihydrochloride in 2.5% phosphoric acid) at room temperature. The optical density was measured at 550 nm after 5 min of incubation at room temperature with a microplate reader.
For orientation: Nitrite, measured by Griess reagent, commonly stands in for NO production.

A short description of data set [2]: Cell cytotoxicity determination (MTT assay). Format: cell-based, murine. As to conditions: mouse, RAW 264.7 macrophage cells, RAW 264.7 cells, read-out: Cytotoxicity IC50 (µM) ± S.E.M. How it is done: (§1) The synthesized compounds were screened for NO suppression activity in IFN-γ/LPS-stimulated RAW 264.7 macrophages at a 50 µM test concentration. […] The IC50 values of the fifty-seven bioactive compounds were determined and compared to that of the positive control, curcumin. An MTT assay was also carried out to confirm that NO inhibition was not due to cytotoxicity. […] The complete bioassay results of all the compounds are provided as Table S2 in Supplementary Data.
(§2) RAW 264.7 murine macrophages cells obtained from American Type Culture Collection (ATCC, Rockville, MD, USA) were grown in Dulbecco’s Modified Eagle’s Medium (DMEM) containing 10% fetal bovine serum (FBS) and 1% penicillin/streptomycin in a 95% air and 5% CO2 atmosphere at 37 °C.
(§3) Supernatant in each well was removed followed by addition of 100 µL DMEM. Subsequently, 20 µL of 3-(4,5-dimethylthiazol-2-yl)-2,5-diphenyltetrazolium bromide (MTT, 5 mg/mL) was then added and the plate was incubated in a 95% air and 5% CO2 atmosphere at 37 °C for 4 h. The mixture of culture media and MTT in all wells were removed and the purplish formazan crystals formed were dissolved in dimethyl sulfoxide (DMSO) and further incubated for 15 min at room temperature. The color intensity was then measured at 570 nm at room temperature.
In general terms: Tetrazolium assays rely on reduction of a dye to a coloured formazan, in cell work by metabolically active cells.

Another data set deals with RAW 264.7 cells. The experiment in a line: Cell cytotoxicity determination (MTT assay). Format: cell-based, murine. The conditions noted are these: read-out: Cytotoxicity IC50 (µM) ± S.E.M. How it is done: as §1, §2, §3
Data set [3] in a line: Chemical stability test (UV-visible spectra in phosphate buffer pH 7.4). It is filed as physicochemical. The conditions noted are these: 20 μM in phosphate buffer pH 7.4, 1% DMSO, 30 min at 5-min intervals, 25 °C. The procedure:
Poor chemical stability of curcumin has been proven as one of the important factors, which cause its low bioavailability. Therefore, in the present study, we further tested the two best compounds (88 and 97) for their chemical stability at physiological pH and compared it to that of curcumin used as reference. The test was carried out by observing the ultraviolet spectral changes of the targeted compounds for 30 minutes with 5-minutes intervals in phosphate buffer (pH 7.4). Figure 8, Figure 9 and Figure 10 depict the ultraviolet changes of curcumin, compound 88 and compound 97, respectively.
Absorbance readings were taken from 300–600 nm using a SpectraMax Plus 384 (Molecular Devices LLC, Sunnyvale, CA, USA). A stock solution of 50 mM curcumin or active compounds 88 and 97 were prepared and diluted by phosphate buffer (pH 7.4), containing 1% dimethyl sulfoxide (DMSO), to a final concentration of 20 μM. The ultraviolet absorption spectra were collected for over 30 min at 5-min intervals at 25 °C. All spectral measurements were carried out in a 1 cm path-length quartz cuvette.

[4] abbreviates: IFN-γ/LPS-stimulated RAW 264.7 cells.
Where [5] appears, read: Mus musculus, IFN-γ/LPS-stimulated RAW 264.7 cells.
The mark [6] stands for this setting: Mus musculus, RAW264.7, IFN-γ/LPS-stimulated RAW 264.7 cells, read-out: NO Inhibition IC50 (µM) ± S.E.M.
The mark [7] stands for this setting: Mus musculus, RAW264.7, Table 6, NO suppression IC50 used for QSAR, unit inferred, read-out: IC50.
[8] abbreviates: Mus musculus, RAW264.7, −log IC50 of NO suppression, read-out: pIC50 (converted).
Setting [9] is: IFN-γ/LPS-stimulated RAW 264.7 cells, read-out: NO Inhibition IC50 (µM) ± S.E.M.

“Also recorded” adds a separate entry of the source. Where two headings read alike, the source gives them in different places.

What is called inhibition is the change of the read-out against control, counted positive when it falls. For the molecule `O=C(/C=C(O)/C=C/c1ccc(O)c(O)c1)c1cc(Cl)ccc1O` [Compound 88], the “NO Inhibition at 50 µM (%) ± S.E.M” value in data set [1] (setting [4]) came to 99.7 ± 1.2%. The inhibition at 50 µM in data set [1] (setting [5]) came out at 99.7 ± 1.15%. Also, the IC50 is 4.89 ± 0.312 µM in data set [1] (setting [6]); 4.9 ± 0.3 µM in data set [1] (setting [7]); 4.9 µM in data set [1] (setting [8]); 56.4 ± 1.19 µM in data set [2]; 40.9 ± 1.6 µM with RAW 264.7 cells. In addition, the “Chemical stability (ultraviolet spectral changes)” value in data set [3] is “excellent chemical stability; also recorded: no significant changes”.
As to `O=C(/C=C(O)/C=C/c1cccc(O)c1)c1ccccc1O` [Compound 80], in data set [1] (setting [4]), the “NO Inhibition at 50 µM (%) ± S.E.M” value is 97.2 ± 0.7%. For the same molecule, the inhibition at 50 µM in data set [1] (setting [5]) amounted to 97.22 ± 0.69%. The IC50 is 30.8 ± 0.722 µM in data set [1] (setting [6]); 30.8 ± 0.7 µM in data set [1] (setting [7]); 30.9 µM in data set [1] (setting [8]); 85 ± 1.44 µM in data set [2]; 67.3 ± 0.6 µM in the data set on RAW 264.7 cells.
Regarding `O=C(/C=C(O)/C=C/c1cc(O)ccc1O)c1cc(Cl)ccc1O` [Compound 87], in data set [1] (setting [4]), the “NO Inhibition at 50 µM (%) ± S.E.M” value is on record as 96.5 ± 1.4%. For the same molecule, in data set [1] (setting [5]), the inhibition at 50 µM was determined as 96.5 ± 1.42%. Moreover, the IC50 in data set [1] (setting [6]) is 32.3 ± 0.865 µM; in data set [1] (setting [7]), 32.3 ± 0.9 µM; in data set [1] (setting [8]), 32.4 µM; in data set [2], 66 ± 1.21 µM; in the data set with RAW 264.7 cells, 49.5 ± 1.7 µM.
Turning to `O=C(/C=C(O)/C=C/c1cccc(O)c1)c1cc(Cl)ccc1O` [Compound 85], in data set [1] (setting [4]), the “NO Inhibition at 50 µM (%) ± S.E.M” value was determined as 95.9 ± 0.5%. In addition, the inhibition at 50 µM in data set [1] (setting [5]) was 95.86 ± 0.45%. Further, the IC50 was 26.9 ± 0.796 µM in data set [1] (setting [6]); 26.9 ± 0.8 µM in data set [1] (setting [7]); 26.9 µM in data set [1] (setting [8]); 53.1 ± 0.973 µM in data set [2]; 89.1 ± 1.1 µM in the data set on RAW 264.7 cells.
Turning to `O=C(/C=C(O)/C=C/c1ccccc1)c1ccc(O)cc1O` [Compound 93], in data set [1] (setting [4]), the “NO Inhibition at 50 µM (%) ± S.E.M” value stood at 94.7 ± 2.3%. For the same molecule, the inhibition at 50 µM in data set [1] (setting [5]) turned out to be 94.7 ± 2.28%. The IC50 in data set [1] (setting [6]) is 29.9 ± 0.444 µM; in data set [1] (setting [7]) it was 29.9 ± 0.4 µM; in data set [1] (setting [8]), 30.2 µM; in data set [2], 59.46 ± 0.511 µM; in the data set on RAW 264.7 cells, 59.5 ± 0.5 µM.
With `O=C(/C=C(O)/C=C/c1ccc(O)cc1)c1cc(Cl)ccc1O` [Compound 86], the “NO Inhibition at 50 µM (%) ± S.E.M” value in data set [1] (setting [4]) is given as 90.3 ± 2.7%. In addition, the IC50 in data set [1] (setting [9]) is less than 20 µM; in data set [1] (setting [6]) it was 18.7 ± 0.786 µM; in data set [1] (setting [7]), 18.7 ± 0.8 µM; in data set [1] (setting [8]) it was 18.6 µM; in data set [2], 89.1 ± 1.08 µM; with RAW 264.7 cells it was 66 ± 1.2 µM. Also, the inhibition at 50 µM in data set [1] (setting [5]) stood at 90.3 ± 2.66%.
Consider `O=C(/C=C(O)/C=C/c1ccccc1O)c1cc(Cl)ccc1O` [Compound 84], for which the IC50 in data set [1] (setting [9]) was less than 20 µM; in data set [1] (setting [6]), 15.9 ± 0.947 µM; in data set [1] (setting [7]) it was 15.9 ± 0.9 µM; in data set [1] (setting [8]), 15.8 µM; in data set [2], 40.9 ± 1.63 µM; in the data set with RAW 264.7 cells it was 53.1 ± 1 µM. In data set [1] (setting [5]), the inhibition at 50 µM amounted to 95.2 ± 0.9%.
As to `O=C(/C=C(O)/C=C/c1ccco1)c1cc(O)ccc1O` [Compound 91], the “NO Inhibition at 50 µM (%) ± S.E.M” value in data set [1] (setting [4]) is given as 83.6 ± 2.8%. Further, in data set [1] (setting [5]), the inhibition at 50 µM was found to be 83.6 ± 2.84%. Moreover, the IC50 in data set [1] (setting [6]) was 75 ± 4.9 µM; in data set [1] (setting [7]), 75 ± 4.9 µM; in data set [1] (setting [8]) it was 74.1 µM; in data set [2], more than 100 µM; in the data set on RAW 264.7 cells, 94.1 ± 0.9 µM.
In the case of `COc1cc(/C=C/C(=O)CC(=O)/C=C/c2ccc(O)c(OC)c2)ccc1O` [Curcumin, curcumin, reference compound], the “NO Inhibition at 50 µM (%) ± S.E.M” value in data set [1] (setting [4]) stood at 99.3 ± 0.2%. Besides, the IC50 was determined as 14.7 ± 0.2 µM in data set [1] (setting [9]), 14.7 ± 0.24 µM in data set [1] (setting [6]), 28.8 ± 0.77 µM in data set [2] and 28.8 ± 0.8 µM in the data set with RAW 264.7 cells. For the same molecule, the inhibition at 50 µM in data set [1] (setting [5]) was found to be 99.33 ± 0.2%. Moreover, the “Chemical stability (ultraviolet spectral changes)” value in data set [3] was “gradually decreased over time”.
As to `O=C(/C=C(O)/C=C/c1ccc(O)c(O)c1)c1ccccc1O` [Compound 97], the “NO Inhibition at 50 µM (%) ± S.E.M” value in data set [1] (setting [4]) was 98.9 ± 1.6%. Also, in data set [1] (setting [5]), the inhibition at 50 µM is 98.9 ± 1.58%. Moreover, the IC50 in data set [1] (setting [6]) is 9.56 ± 0.468 µM; in data set [1] (setting [7]), 9.6 ± 0.5 µM; in data set [1] (setting [8]), 9.55 µM; in data set [2], more than 100 µM. For the same molecule, the “Chemical stability (ultraviolet spectral changes)” value in data set [3] was “excellent chemical stability; also recorded: no significant changes”.
Regarding `O=C(/C=C(O)/C=C/c1ccccc1O)c1cc(O)ccc1O` [Compound 89], in data set [1] (setting [4]), the “NO Inhibition at 50 µM (%) ± S.E.M” value worked out at 83.6 ± 2.0%. For the same molecule, the inhibition at 50 µM in data set [1] (setting [5]) turned out to be 83.6 ± 2%. Moreover, the IC50 in data set [1] (setting [6]) was 31 ± 2 µM; in data set [1] (setting [8]), 30.9 µM; in data set [2] it was 67.3 ± 0.552 µM; in the data set with RAW 264.7 cells it was 72.6 ± 2.6 µM.
Turning to `O=C(/C=C(O)/C=C/c1cccc(O)c1)c1ccc(O)cc1O` [Compound 94], the “NO Inhibition at 50 µM (%) ± S.E.M” value in data set [1] (setting [4]) is 95.4 ± 1.5%. Further, the inhibition at 50 µM in data set [1] (setting [5]) stood at 95.4 ± 1.45%. In addition, the IC50 in data set [1] (setting [6]) is 24.8 ± 0.4 µM; in data set [1] (setting [7]), 24.8 ± 0.4 µM; in data set [1] (setting [8]) it was 24.5 µM; in data set [2], 70.1 ± 1.8 µM; in the data set with RAW 264.7 cells it was 70.1 ± 1.8 µM.
For the molecule `O=C(/C=C(O)/C=C/c1ccc(Cl)s1)c1ccccc1O` [Compound 17], in data set [1] (setting [5]), the inhibition at 50 µM turned out to be 63.8 ± 2.6%. For the same molecule, the IC50 in data set [1] (setting [6]) is 36.4 ± 1.8 µM; in data set [1] (setting [7]) it was 36.4 ± 1.8 µM; in data set [1] (setting [8]), 36.3 µM; in data set [2], 67.8 ± 2.87 µM; with RAW 264.7 cells, 67.9 ± 2.9 µM.
